Values of other authors, collected in patent publication US6419963B1, “Composition and method for the treatment of diaper rash using natural products” (priority 2001, dated 2002).

Assays:
[1] = tested on: ethanol-induced ulcers; settings: rats

Row | Compound | solubility in water | ethanol-induced ulcers [1]
1 | [O]=[Zn] [Zinc oxide] | almost totally insoluble | 
2 | CN/C(=N/CCSCc1nc[nH]c1C)NC#N [cimetidine] |  | not affected
3 | Zinc glycerolate | insoluble | 
